# Read-outs that look alike come from different tables or passages of the source.
# Key:
# [1] = system: DG-75 Burkitt’s lymphoma cell line; assay: alamarBlue cell viability assay; details: Homo sapiens, DG-75, 48 h; for viability at 1 µM: read-out: % Viable Cells Remaining DG-75, 1 µM, 48 h; for viability at 10 µM: read-out: % Viable Cells Remaining DG-75, 10 µM, 48 h
# physchem = type: physicochemical; details: buffer
# Experimental: A preliminary HPLC stability study was performed on a representative nitrovinylanthracene compound 19m (isopropyl) in various biologically relevant pH systems (acidic pH 4 found in the stomach, basic pH 9 found in the intestine and pH 7.4 in the plasma). […] Based on the results of this stability study, the compound 19m was determined to be suitable for further preclinical investigation.
# [2] = system: MUTU-I Burkitt’s lymphoma cell line; assay: alamarBlue cell viability assay; details: MUTU-I, 24 h; for viability at 1 µM: read-out: % Viable Cells Remaining MUTU-1, 1 µM, 24 h; for viability at 10 µM: read-out: % Viable Cells Remaining MUTU-1, 10 µM, 24 h
# HG-3 CLL cells = assay: Annexin V/PI apoptotic assay (FACS); type: cell-based; details: 48 h
# Experimental: (§1) The pro-apoptotic effects of the selected nitrovinylanthracene compounds 19a, 19g, 19i, 19l and 19m after 48 h were next determined using FITC (fluorescein isothiocyanate), Annexin V/PI (propidium iodide) staining and FACS (fluorescence-activated cell sorting) analysis to characterize the mode of cellular death induced. […] The CLL cells PGA1 and HG3 (1 × 10^6 cells/mL) were treated at 37 °C with either vehicle (1% (v/v) DMSO) or the nitrostyrene compounds 19a (10 μM, 5 μM and 1 μM) and 19g, 19i, 19l and 19m (10 μM and 1 μM) for 48 h. The cells were then harvested by centrifugation at 400× g in a temperature-controlled Sorvall centrifuge and rinsed with 0.5 mL of Ca^2+ Annexin-V-binding buffer (0.1 M HEPES, pH 7.4; 0.14 M NaCl; 25 mM CaCl2). The samples were resuspended in 50 µL FITC Annexin V (diluted 1:33 in Ca^2+ Annexin V-binding buffer), incubated on ice for 10 min (protected from light), washed with Annexin-V-binding buffer and re-suspended in 500 µL of propidium iodide (PI) solution (0.5 µg/mL). The samples were analysed within 1 h using a BD Accuri C6 flow cytometer counting 10,000 cells and analysed using the FlowJo software (FlowJo LLC, Ashland, OR, USA) package.
# PGA-1 CLL cells = assay: Annexin V/PI apoptotic assay (FACS); type: cell-based; details: PGA-1, 10 μM, 48 h
# Experimental: as §1
# HG-3 CLL cell line = assay: alamarBlue cell viability assay; details: for viability at 1 µM / viability at 10 µM / IC50: CLL cell, 24 h; for viability at 1 µM: read-out: % Viability HG-3, 1 µM, 24 h; for viability at 10 µM: read-out: % Viability HG-3, 10 µM, 24 h; for IC50: read-out: HG-3 IC50, 24 h; for fold greater response (IC50) in HG-3 compared to PGA-1 cells: ratio of IC50 values
# PGA-1 CLL cell line = assay: alamarBlue cell viability assay; details: 24 h; for viability at 10 µM: read-out: % Viability PGA-1, 10 µM, 24 h
# [3] = system: MCF-7 human breast cancer cells; assay: alamarBlue cell viability assay; details: for IC50: MCF7, read-out: MCF-7 IC50
# [4] = system: MDA-MB-231 human breast cancer cells; assay: alamarBlue cell viability assay; type: cell-based; details: eight concentrations 0.001–50 μM
# [5] = system: DG-75 Burkitt’s lymphoma cell line; details: human, 48 h, 1 µM
# [6] = system: DG-75 Burkitt’s lymphoma cell line; details: cited from earlier work
# MUTU-I BL cells = assay: Annexin V/PI apoptotic assay (FACS); type: cell-based; details: 24 h
# Experimental: (§2) The chemotherapeutic drug taxol was used as a positive control. The pro-apoptotic effects of the selected nitrostyrene compounds 11g, 11h, 11i, 11j, 11k and 11l (10 μM) were determined using FITC (fluorescein isothiocyanate), Annexin V/PI (propidium iodide) staining and FACS (fluorescence-activated cell sorting) analysis to characterise the mode of cellular death induced by the synthesised compounds. Four populations were produced in this assay: Annexin-V- and PI-negative (Q4, healthy cells), Annexin-V-positive and PI-negative (Q3, early apoptosis), Annexin-V- and PI-positive (Q2, late apoptosis) and Annexin-V-negative and PI-positive (Q1, necrosis), which were easily identified and quantified. Apoptosis was assessed as % total apoptosis by a combination of early and late apoptosis (Q3 and Q2, respectively). […] The identification of compounds that can induce apoptosis in cancer cells is required in the development of potential lead structures for anticancer drugs.
# (§3) The BL cells DG-75 and MUTU-I (750,000) were treated at 37 °C with either vehicle (0.1% (v/v) EtOH), […] taxol (10 μM) and incubated for 24 h (MUTU-1) or 48 h (DG-75). The CLL cells PGA1 and HG3 (1 × 10^6 cells/mL) were treated at 37 °C with either vehicle (1% (v/v) DMSO) or the nitrostyrene compounds 19a (10 μM, 5 μM and 1 μM) and 19g, 19i, 19l and 19m (10 μM and 1 μM) for 48 h. The cells were then harvested by centrifugation at 400× g in a temperature-controlled Sorvall centrifuge and rinsed with 0.5 mL of Ca^2+ Annexin-V-binding buffer (0.1 M HEPES, pH 7.4; 0.14 M NaCl; 25 mM CaCl2). The samples were resuspended in 50 µL FITC Annexin V (diluted 1:33 in Ca^2+ Annexin V-binding buffer), incubated on ice for 10 min (protected from light), washed with Annexin-V-binding buffer and re-suspended in 500 µL of propidium iodide (PI) solution (0.5 µg/mL). The samples were analysed within 1 h using a BD Accuri C6 flow cytometer counting 10,000 cells and analysed using the FlowJo software (FlowJo LLC, Ashland, OR, USA) package.
# DG-75 BL cells = assay: Annexin V/PI apoptotic assay (FACS); type: cell-based; details: 48 h
# Experimental: as §2, §3
# Bjab BL cell line = assay: alamarBlue cell viability assay; type: cell-based; details: Homo sapiens, 24 h
# Experimental: (§4) Cells were seeded at a density of 2.5 × 10^4 cells/well (MCF-7, MDA-MB-231 cells), 1 × 10^4 cells/well (HL-60 cells), 1–5 × 10^4 cells per well (BL MUTU-I, DG-75 cells) and 2 × 10^5 cells/well [HG-3, PGA-1 (CLL cells)], Ramos, BJAB (BL cells) (200 μL per well), in 96-well plates. Cells were treated with the desired drug concentration for the appropriate time for each cell type, and the samples were incubated as required. alamarBlue (20 μL) was then added to each well and the samples further incubated in the dark at 37 °C for 4 h. Wells containing only reagent and cell culture medium in the absence of cells were used as blank controls. Ethanol was used as a vehicle, and cells were treated with 1% ethanol (v/v) in all experiments. The 96-well plates were analysed on a fluorescence plate reader (SpectraMax Gemini, Molecular Devices) (emission and excitement wavelengths of 590 nm and 544 nm, respectively), and the fluorescence was recorded. The decrease in cell viability was then calculated with reference to the vehicle samples (100% viability). EMEM medium with the addition of alamarBlue was used as a blank. Vehicle-treated cells were considered to be 100% viable, and the viabilities of each compound was calculated accordingly. […] All biochemical assays were performed in triplicate on at least three independent occasions, and the mean values were determined.
# Ramos BL cell line = assay: alamarBlue cell viability assay; type: cell-based; details: Homo sapiens, 24 h
# Experimental: as §4
# [7] = system: HeLa cervical cancer cells; assay: alamarBlue cell viability assay; details: Homo sapiens, 24 h
# DG-75 cells = system: DG-75 cells; parameters: method as in earlier work; details: nitrostyrenes and taxol, MTT assay, reported data; cited from earlier work
# MUTU-1 cells = system: MUTU-1 cells; parameters: method as in earlier work; details: nitrostyrenes and taxol, MTT assay, reported data; cited from earlier work
# [8] = system: MUTU-I Burkitt’s lymphoma cell line; details: read-out: IC50 MUTU-I; previous work; cited from earlier work
# [9] = system: HL-60 promyelocytic leukaemia cells; assay: alamarBlue cell viability assay; details: Homo sapiens, HL-60, 24 h
# [10] = CLL cell, read-out: PGA-1 IC50, 24 h
# [11] = 10 µM, total (early + late) apoptosis
smiles,measurement,setting,value
"CC(C)c1c2ccccc2c(/C=C/[N+](=O)[O-])c2ccccc12 [Compound 19m, (E)-9-Isopropyl-10-(2-Nitrovinyl)Anthracene]",viability at 1 µM,[1],85.2%
same,viability at 10 µM,[1],28.1%
same,half-life,physchem; pH 4,> 24 h
same,remaining at 24 h,physchem; pH 4,55%
same,half-life,physchem; pH 7.4,> 24 h
same,remaining at 24 h,physchem; pH 7.4,56%
same,half-life,physchem; pH 9,19 h
same,remaining at 24 h,physchem; pH 9,42%
same,viability at 1 µM,[2],78.4%
same,viability at 10 µM,[2],0.21%
same,total apoptosis,"HG-3 CLL cells; HG-3, 1 μM",25%
same,total apoptosis,"HG-3 CLL cells; HG-3, 10 μM",69%
same,total apoptosis,PGA-1 CLL cells,74%
same,viability at 1 µM,HG-3 CLL cell line,82%
same,viability at 10 µM,HG-3 CLL cell line,0.9%
same,IC50,HG-3 CLL cell line,700 nM
same,fold greater response (IC50) in HG-3 compared to PGA-1 cells,HG-3 CLL cell line,13 fold
same,viability at 10 µM,PGA-1 CLL cell line; CLL cell,2.9%
same,IC50,PGA-1 CLL cell line; [10],9100 nM
COc1c2ccccc2c(/C=C/[N+](=O)[O-])c2ccccc12 [Compound 19g],viability at 1 µM,[1],89.2%
same,viability at 10 µM,[1],13.8%
same,IC50,[3],5310 nM
same,IC50,[4],3780 nM
same,viability at 1 µM,[2],90.1%
same,viability at 10 µM,[2],1.85%
same,total apoptosis,"HG-3 CLL cells; HG-3, 1 μM",11%
same,total apoptosis,"HG-3 CLL cells; HG-3, 10 μM",54%
same,total apoptosis,PGA-1 CLL cells,52%
same,viability at 10 µM,HG-3 CLL cell line,0.5 to 8.3%
same,IC50,HG-3 CLL cell line,170 nM
same,fold greater response (IC50) in HG-3 compared to PGA-1 cells,HG-3 CLL cell line,7.8 fold
same,viability at 1 µM,"PGA-1 CLL cell line; CLL cell, read-out: % Viability PGA-1, 1 µM, 24 h",43%
same,viability at 10 µM,PGA-1 CLL cell line; CLL cell,1.21%
same,IC50,PGA-1 CLL cell line; [10],1300 nM
same,IC50,PGA-1 CLL cell line; read-out: PGA-1 IC50,1290 nM
"CC(=O)O[C@H]1C(=O)[C@@]2(C)[C@H]([C@H](OC(=O)c3ccccc3)[C@]3(O)C[C@H](OC(=O)[C@H](O)[C@@H](NC(=O)c4ccccc4)c4ccccc4)C(C)=C1C3(C)C)[C@]1(OC(C)=O)CO[C@@H]1C[C@@H]2O [Taxol, taxol, reference compound]",% Viable Cells Remaining DG-75,[5],90.0%
same,viability at 1 µM,[1],> 90%
same,viability at 10 µM,[1],40%
same,% Viable Cells Remaining DG-75 48 h 1 µM,[6],>90%
same,IC50,"[6]; read-out: IC50 DG-75, previous work",1320 nM
same,viability at 1 µM,"[3]; MCF7, 72 h, read-out: % Viable Cells Remaining MCF-7 72 h 1 µM",101%
same,viability at 10 µM,"[3]; MCF7, 72 h, read-out: % Viable Cells Remaining MCF-7 72 h 10 µM",75%
same,MUTU-I Apoptosis (%),MUTU-I BL cells; 1 µM,62.8%
same,MUTU-I Apoptosis (%),MUTU-I BL cells; [11],87.3%
same,MUTU-I Apoptosis (%),"MUTU-I BL cells; 10 µM, total (early + late) apoptosis, listed as taxol",87%
same,DG-75 Apoptosis (%),DG-75 BL cells; 1 µM,20.7%
same,DG-75 Apoptosis (%),DG-75 BL cells; [11],72.8%
same,viability at 1 µM,Bjab BL cell line; read-out: % Viable Cells Remaining Bjab 24 h 1 µM,97.6%
same,viability at 10 µM,Bjab BL cell line; read-out: % Viable Cells Remaining Bjab 24 h 10 µM,80.2%
same,viability at 1 µM,Ramos BL cell line; read-out: % Viable Cells Remaining Ramos 24 h 1 µM,69.3%
same,viability at 10 µM,Ramos BL cell line; read-out: % Viable Cells Remaining Ramos 24 h 10 µM,24.9%
same,viability at 1 µM,[7]; read-out: % Viable Cells Remaining HeLa 24 h 1 µM,86.9%
same,viability at 10 µM,[7]; read-out: % Viable Cells Remaining HeLa 24 h 10 µM,48.4%
same,IC50,DG-75 cells,1320 nM
same,IC50,MUTU-1 cells,300 nM
same,IC50,[8],320 nM
same,viability at 1 µM,[2],32%
same,viability at 10 µM,[2],7%
same,viability at 1 µM,[9]; read-out: % Viable Cells Remaining HL60 24 h 1 µM,97.6%
same,viability at 10 µM,[9]; read-out: % Viable Cells Remaining HL60 24 h 10 µM,69.7%
"CCc1c2ccccc2c(/C=C/[N+](=O)[O-])c2ccccc12 [Compound 19l, (E)-9-Ethyl-10-(2-Nitrovinyl)Anthracene]",viability at 1 µM,[1],104%
same,viability at 10 µM,[1],4.04%
same,viability at 1 µM,[2],72.7%
same,viability at 10 µM,[2],0.5%
same,total apoptosis,"HG-3 CLL cells; HG-3, 10 μM",74%
same,total apoptosis,PGA-1 CLL cells,82%
same,viability at 1 µM,HG-3 CLL cell line,78%
same,viability at 10 µM,HG-3 CLL cell line,0.5%
same,IC50,HG-3 CLL cell line,5400 nM
same,viability at 10 µM,PGA-1 CLL cell line; CLL cell,2.7%
same,IC50,PGA-1 CLL cell line; [10],1300 nM
"Cc1c2ccccc2c(/C=C/[N+](=O)[O-])c2ccccc12 [Compound 19i, (E)-9-Methyl-10-(2-Nitrovinyl)Anthracene]",viability at 1 µM,[1],96.7%
same,viability at 10 µM,[1],19.5%
same,IC50,[3],2110 nM
same,IC50,[4],3260 nM
same,viability at 1 µM,[2],94.5%
same,viability at 10 µM,[2],1.95%
same,total apoptosis,"HG-3 CLL cells; HG-3, 10 μM",70%
same,total apoptosis,PGA-1 CLL cells,80%
same,viability at 10 µM,HG-3 CLL cell line,0.5 to 8.3%
same,IC50,HG-3 CLL cell line,3850 nM
same,viability at 10 µM,PGA-1 CLL cell line; CLL cell,2.9%
same,IC50,PGA-1 CLL cell line; [10],4400 nM

# From article PMC10746112, “Synthesis and Pro-Apoptotic Effects of Nitrovinylanthracenes and Related Compounds in Chronic Lymphocytic Leukaemia (CLL) and Burkitt’s Lymphoma (BL)” (Molecules, 2023)
